The target of this test is T1, serotonin (5-HT) reuptake (Rattus norvegicus, UniProt P31652).
T1 construct: synaptosomes are freshly isolated from areas of the rat brain; from tissue; host or cells: rat brain synaptosomes (P2 fraction)
The test is described as follows: Inhibition of serotonin (5HT) reuptake in synaptosomes from rat brain. The following applies: test concentration of 10 μM. It counts as biochemical. The gist of the method:
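Compounds screened at 10 μM and reported as percent inhibition of serotonin uptake. Uptake measured in a freshly prepared P2 synaptosomal fraction from rat brain.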

T1 sequence (P31652 whole entry): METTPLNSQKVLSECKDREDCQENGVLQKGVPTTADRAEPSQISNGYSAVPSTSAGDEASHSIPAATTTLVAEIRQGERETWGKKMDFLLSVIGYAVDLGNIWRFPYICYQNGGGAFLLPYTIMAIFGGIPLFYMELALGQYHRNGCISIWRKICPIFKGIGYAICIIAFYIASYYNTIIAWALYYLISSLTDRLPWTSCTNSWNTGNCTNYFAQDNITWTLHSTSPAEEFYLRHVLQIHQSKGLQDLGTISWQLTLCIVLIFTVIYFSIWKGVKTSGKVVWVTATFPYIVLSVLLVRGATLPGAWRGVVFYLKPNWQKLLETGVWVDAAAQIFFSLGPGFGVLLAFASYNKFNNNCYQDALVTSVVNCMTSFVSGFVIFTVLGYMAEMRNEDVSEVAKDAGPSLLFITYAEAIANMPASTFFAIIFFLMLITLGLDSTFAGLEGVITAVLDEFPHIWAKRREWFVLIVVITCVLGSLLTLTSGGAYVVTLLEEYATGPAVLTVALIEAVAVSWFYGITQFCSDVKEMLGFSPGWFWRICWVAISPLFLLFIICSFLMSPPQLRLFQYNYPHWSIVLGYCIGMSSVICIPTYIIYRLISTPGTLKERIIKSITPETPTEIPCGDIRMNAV

Take `COc1ccc(S(=O)(=O)N2CCC(OCC(=O)NCC3CCC(C(c4ccc(F)cc4)N(C)C)CC3)C2)cc1OC` (centres unmarked) [Example 497]: the “5-HT (inhibition of reuptake of serotonin, % inhibition)” value came to 86%.

For `COc1cc(C)c(S(=O)(=O)N2CCC(OCC(=O)NCC3CCC(C(c4ccc(Cl)cc4)N(C)C)CC3)CC2)c(C)c1C` (centres unmarked) [Example 498], the “5-HT (inhibition of reuptake of serotonin, % inhibition)” value was 88%. In the case of `COc1cc(C)c(S(=O)(=O)N2CCC(CCOCC(=O)NCC3CCC(C(c4ccc(Cl)cc4)N(C)C)CC3)CC2)c(C)c1C` (centres unmarked) [Example 499] it was 75%. In the case of `COc1ccc(S(=O)(=O)N2CCCCC2COCC(=O)NCCC2CCC(C(c3ccc(F)cc3)N(C)C)CC2)c(OC)c1` (centres unmarked) [Example 500] it was 90%; in that of `Cc1cc(C)c(S(=O)(=O)N2CCC(OCC(=O)NCCC3CCC(C(c4ccc(F)cc4)N(C)C)CC3)C2)c(C)c1` (centres unmarked) [Example 501], 77%; in that of `CN(C)C(c1ccc(F)cc1)C1CCC(NC(=O)COCCN2CCN(S(=O)(=O)c3ccccc3)CC2)CC1` (centres unmarked) [Example 502], 97%. The value for `COc1cc(C)c(S(=O)(=O)N2CCC(OCC(=O)NCC3CCC(C(CCc4ccccc4)N(C)C)CC3)C2)c(C)c1C` (centres unmarked) [Example 503] was 90%; that for `COc1cc(C)c(S(=O)(=O)N(CCOCC(=O)NC2CCC(C(c3ccc(F)cc3)N(C)C)CC2)Cc2ccccc2)c(C)c1` (centres unmarked) [Example 504] was 89%. Turning to `Cc1cc(C)c(S(=O)(=O)N2CCC(OCC(=O)NCCC3CCC(C(c4ccc(Cl)cc4)N(C)C)CC3)C2)c(C)c1` (centres unmarked) [Example 506], the “5-HT (inhibition of reuptake of serotonin, % inhibition)” value amounted to 86%.

`CN(C)C(c1ccccc1)C1CCC(CNC(=O)COCCC2CCN(S(=O)(=O)c3ccccc3)CC2)CC1` (centres unmarked) [Example 507]: the “5-HT (inhibition of reuptake of serotonin, % inhibition)” value was found to be 75%.

Regarding `COc1ccc(S(=O)(=O)N(C)CCOCC(=O)NCC2CCC(C(c3ccc(F)cc3)N(C)C)CC2)cc1` (centres unmarked) [Example 508], the “5-HT (inhibition of reuptake of serotonin, % inhibition)” value is 80%. In the case of `COc1cc(C)c(S(=O)(=O)N2CCC(OCC(=O)NCCC3CCC(C(c4ccc(F)cc4)N(C)C)CC3)C2)c(C)c1` (centres unmarked) [Example 509] it was 97%; in that of `COc1cc(C)c(S(=O)(=O)N2CCC(CCOCC(=O)NCCC3CCC(C(c4ccc(F)cc4)N(C)C)CC3)CC2)c(C)c1C` (centres unmarked) [Example 510], 99%. Turning to `COc1ccc(S(=O)(=O)N2CCCC2COCC(=O)NCC2CCC(C(c3ccc(F)cc3)N(C)C)CC2)cc1` (centres unmarked) [Example 511], the “5-HT (inhibition of reuptake of serotonin, % inhibition)” value is given as 98%. The value for `COc1ccc(S(=O)(=O)N2CCC(OCC(=O)NC3CCC(C(c4ccc(F)cc4)N(C)C)CC3)C2)cc1OC` (centres unmarked) [Example 512] was 86%. The value for `CN(C)C(CCc1ccccc1)C1CCC(CNC(=O)COCCN(C)S(=O)(=O)c2ccc(Cl)cc2Cl)CC1` (centres unmarked) [Example 513] was 89%; that for `COc1ccc(S(=O)(=O)N(C)CCOCC(=O)NCC2CCC(C(c3ccc(F)cc3)N(C)C)CC2)cc1OC` (centres unmarked) [Example 514] was 70%; that for `CN(C)C(CCc1ccccc1)C1CCC(CNC(=O)COCCN(C)S(=O)(=O)c2c(Cl)cc(Cl)cc2Cl)CC1` (centres unmarked) [Example 515] was 97%. The value for `CN(C)C(c1ccc(F)cc1)C1CCC(CNC(=O)COC2CCN(S(=O)(=O)c3ccc(Cl)cc3)C2)CC1` (centres unmarked) [Example 517] was 86%; that for `CN(C)C(c1ccc(F)cc1)C1CCC(CCNC(=O)COC2CCN(S(=O)(=O)c3ccc(F)cc3)C2)CC1` (centres unmarked) [Example 518] was 102%; that for `COc1ccc(S(=O)(=O)N(C)CCOCC(=O)NCCC2CCC(C(c3ccc(F)cc3)N(C)C)CC2)cc1` (centres unmarked) [Example 519] was 88%. On to `CN(C)C(c1ccc(F)cc1)C1CCC(CCNC(=O)COC2CCCN(S(=O)(=O)c3ccccc3)C2)CC1` (centres unmarked) [Example 520], for which the “5-HT (inhibition of reuptake of serotonin, % inhibition)” value amounted to 97%. The value for `COc1cc(C)c(S(=O)(=O)N2CCC(CCOCC(=O)NCC3CCC(C(CCc4ccccc4)N(C)C)CC3)CC2)c(C)c1C` (centres unmarked) [Example 521] was 89%. In the case of `CN(C)C(c1ccc(F)cc1)C1CCC(CNC(=O)COC2CCN(S(=O)(=O)c3ccc(F)cc3)C2)CC1` (centres unmarked) [Example 522] it was 98%; in that of `COc1cc(C)c(S(=O)(=O)N(CCOCC(=O)NC2CCC(C(c3ccc(F)cc3)N(C)C)CC2)Cc2ccccc2)c(C)c1C` (centres unmarked) [Example 523], 81%. In the case of `COc1ccc(S(=O)(=O)N2CCCCC2COCC(=O)NC2CCC(C(c3ccc(F)cc3)N(C)C)CC2)c(OC)c1` (centres unmarked) [Example 524] it was 86%; in that of `COc1cc(C)c(S(=O)(=O)N(C)CCOCC(=O)NCC2CCC(C(CCc3ccccc3)N(C)C)CC2)c(C)c1` (centres unmarked) [Example 525], 84%; in that of `CN(C)C(CCc1ccccc1)C1CCC(CNC(=O)COCCN2CCN(S(=O)(=O)c3ccccc3)CC2)CC1` (centres unmarked) [Example 526], 90%. Turning to `COc1cc(C)c(S(=O)(=O)N2CCC(OCC(=O)NCC3CCC(C(c4ccc(F)cc4)N(C)C)CC3)CC2)c(C)c1C` (centres unmarked) [Example 527], the “5-HT (inhibition of reuptake of serotonin, % inhibition)” value is listed as 96%. In the case of `COc1cc(C)c(S(=O)(=O)N2CCN(CCOCC(=O)NCC3CCC(C(CCc4ccccc4)N(C)C)CC3)CC2)c(C)c1C` (centres unmarked) [Example 528], the “5-HT (inhibition of reuptake of serotonin, % inhibition)” value is recorded as 94%. In the case of `CN(C)C(c1ccc(F)cc1)C1CCC(CCNC(=O)COC2CCN(S(=O)(=O)c3ccccc3)C2)CC1` (centres unmarked) [Example 530] it was 89%. In the case of `CN(C)C(c1ccc(Cl)cc1)C1CCC(CCNC(=O)COCCC2CCN(S(=O)(=O)c3ccccc3)CC2)CC1` (centres unmarked) [Example 531] it was 98%; in that of `CN(C)C(c1ccc(F)cc1)C1CCC(CNC(=O)COC2CCN(S(=O)(=O)c3ccccc3)C2)CC1` (centres unmarked) [Example 532], 99%. The value for `CN(C)C(CCc1ccccc1)C1CCC(CNC(=O)COCCN(Cc2ccccc2)S(=O)(=O)c2ccccc2)CC1` (centres unmarked) [Example 533] was 93%; that for `COc1ccc(S(=O)(=O)N2CCCCC2CCOCC(=O)NCC2CCC(C(CCc3ccccc3)N(C)C)CC2)cc1` (centres unmarked) [Example 535] was 85%; that for `CCN(CCOCC(=O)NCC1CCC(C(CCc2ccccc2)N(C)C)CC1)S(=O)(=O)c1c(C)cc(OC)c(C)c1C` (centres unmarked) [Example 536] was 84%.

With `Cc1ccc(S(=O)(=O)N2CCC(OCC(=O)NCC3CCC(C(CCc4ccccc4)N(C)C)CC3)C2)cc1` (centres unmarked) [Example 538], the “5-HT (inhibition of reuptake of serotonin, % inhibition)” value was 91%. As to `CN(C)C(CCc1ccccc1)C1CCC(CNC(=O)COCCN(C)S(=O)(=O)c2ccc(F)cc2)CC1` (centres unmarked) [Example 539], the “5-HT (inhibition of reuptake of serotonin, % inhibition)” value stood at 102%. The value for `COc1ccc(S(=O)(=O)N2CCCCC2COCC(=O)NCCC2CCC(C(c3ccc(Cl)cc3)N(C)C)CC2)cc1OC` (centres unmarked) [Example 540] was 81%. The value for `COc1cc(C)c(S(=O)(=O)N2CCC(OCC(=O)NCC3CCC(C(c4ccc(F)cc4)N(C)C)CC3)C2)c(C)c1` (centres unmarked) [Example 541] was 95%; that for `COc1cc(C)c(S(=O)(=O)N(CCOCC(=O)NCC2CCC(C(CCc3ccccc3)N(C)C)CC2)Cc2ccccc2)c(C)c1` (centres unmarked) [Example 542] was 87%.
